Test results taken from US20250114345A1, “COMPOUNDS AND COMPOSITIONS AS CBP/P300 DEGRADERS AND USES THEREOF” (Oncopia Therapeutics, Inc. d/b/a/ SK Life Science Labs, priority 2023, published 2025).

Molecular target: T1, p300 (Homo sapiens, UniProt Q09472)
T1 construct: host or cells: A549 P300 HiBit cells
Assay: P300 degradation, HiBit technology in A549 P300 HiBit cells (2 h)
Type: cell-based
Conditions: 2 hrs post treatment; for Dmax: A549, A549 P300 HiBit cells; for DC50: A549 P300 HiBit cells
In short: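 Degradation potency and Dmax came from HiBiT luminescence in tagged A549 cells treated with serially diluted compound (DMSO stocks at 10 mM) after overnight equilibration in F-12K with 10% heat-inactivated FBS.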

T1 sequence (Q09472 whole entry): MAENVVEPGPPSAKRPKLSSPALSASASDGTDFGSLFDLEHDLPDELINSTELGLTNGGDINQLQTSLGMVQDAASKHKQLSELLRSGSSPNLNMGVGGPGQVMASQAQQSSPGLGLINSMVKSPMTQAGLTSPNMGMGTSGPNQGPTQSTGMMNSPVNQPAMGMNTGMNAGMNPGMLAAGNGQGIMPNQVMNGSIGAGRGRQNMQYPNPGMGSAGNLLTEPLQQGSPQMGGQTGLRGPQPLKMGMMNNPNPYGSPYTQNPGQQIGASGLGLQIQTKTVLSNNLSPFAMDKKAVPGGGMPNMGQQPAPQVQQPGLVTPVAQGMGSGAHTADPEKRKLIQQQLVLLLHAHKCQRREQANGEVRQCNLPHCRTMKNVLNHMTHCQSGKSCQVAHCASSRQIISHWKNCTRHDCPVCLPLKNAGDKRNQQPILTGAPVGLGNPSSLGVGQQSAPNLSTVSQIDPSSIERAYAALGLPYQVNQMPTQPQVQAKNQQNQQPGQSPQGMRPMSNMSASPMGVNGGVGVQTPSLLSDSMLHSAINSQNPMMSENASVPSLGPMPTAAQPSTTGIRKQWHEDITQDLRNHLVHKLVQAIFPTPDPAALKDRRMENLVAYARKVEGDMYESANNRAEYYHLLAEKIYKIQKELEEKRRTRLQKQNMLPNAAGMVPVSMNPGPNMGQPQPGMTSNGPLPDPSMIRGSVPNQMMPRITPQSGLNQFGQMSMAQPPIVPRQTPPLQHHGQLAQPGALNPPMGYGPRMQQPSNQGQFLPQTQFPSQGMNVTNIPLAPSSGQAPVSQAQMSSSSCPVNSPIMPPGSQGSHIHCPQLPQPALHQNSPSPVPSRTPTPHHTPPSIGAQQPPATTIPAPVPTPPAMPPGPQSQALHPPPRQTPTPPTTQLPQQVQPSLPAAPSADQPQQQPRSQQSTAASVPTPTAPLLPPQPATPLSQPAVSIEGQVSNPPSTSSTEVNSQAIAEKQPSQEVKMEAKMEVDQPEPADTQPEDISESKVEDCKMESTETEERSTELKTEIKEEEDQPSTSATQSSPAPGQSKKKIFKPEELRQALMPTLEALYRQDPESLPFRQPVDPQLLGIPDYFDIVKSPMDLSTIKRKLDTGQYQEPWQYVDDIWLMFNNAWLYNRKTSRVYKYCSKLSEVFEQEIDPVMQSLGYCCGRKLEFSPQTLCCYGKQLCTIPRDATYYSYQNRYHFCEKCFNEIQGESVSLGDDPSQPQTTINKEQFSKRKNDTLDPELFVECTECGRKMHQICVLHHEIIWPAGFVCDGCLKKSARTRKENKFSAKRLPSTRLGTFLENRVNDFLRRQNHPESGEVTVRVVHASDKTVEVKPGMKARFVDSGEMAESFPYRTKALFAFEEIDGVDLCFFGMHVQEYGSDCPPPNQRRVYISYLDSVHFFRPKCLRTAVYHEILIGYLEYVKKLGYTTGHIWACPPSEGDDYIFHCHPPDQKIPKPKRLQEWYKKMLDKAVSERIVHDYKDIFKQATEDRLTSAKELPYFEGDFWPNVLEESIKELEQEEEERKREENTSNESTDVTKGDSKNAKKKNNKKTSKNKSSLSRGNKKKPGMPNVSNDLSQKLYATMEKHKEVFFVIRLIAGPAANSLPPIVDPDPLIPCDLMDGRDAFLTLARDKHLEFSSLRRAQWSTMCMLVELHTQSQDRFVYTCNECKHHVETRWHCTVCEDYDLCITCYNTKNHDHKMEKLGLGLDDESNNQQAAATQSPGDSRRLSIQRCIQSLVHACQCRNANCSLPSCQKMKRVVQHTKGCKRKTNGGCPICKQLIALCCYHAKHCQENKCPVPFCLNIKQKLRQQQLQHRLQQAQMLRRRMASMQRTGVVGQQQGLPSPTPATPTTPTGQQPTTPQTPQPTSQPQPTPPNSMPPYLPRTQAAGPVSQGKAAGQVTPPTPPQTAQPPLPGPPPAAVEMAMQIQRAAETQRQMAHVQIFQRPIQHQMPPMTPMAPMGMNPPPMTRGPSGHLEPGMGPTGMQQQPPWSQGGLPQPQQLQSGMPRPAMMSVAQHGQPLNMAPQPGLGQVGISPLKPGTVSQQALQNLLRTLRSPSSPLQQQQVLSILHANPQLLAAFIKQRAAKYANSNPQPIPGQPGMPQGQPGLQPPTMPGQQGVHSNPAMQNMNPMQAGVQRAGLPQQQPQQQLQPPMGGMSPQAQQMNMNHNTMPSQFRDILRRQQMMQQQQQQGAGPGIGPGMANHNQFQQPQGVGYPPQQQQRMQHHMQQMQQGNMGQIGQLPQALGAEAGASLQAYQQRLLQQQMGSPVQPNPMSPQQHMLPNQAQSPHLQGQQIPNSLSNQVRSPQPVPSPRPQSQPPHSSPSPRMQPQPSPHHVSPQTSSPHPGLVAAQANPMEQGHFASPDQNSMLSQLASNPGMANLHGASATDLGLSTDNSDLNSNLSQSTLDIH

SMILES | Dmax [%] | DC50 [nM]
CN1CCN(c2ccc3c(c2)n(C)c(=O)n3C)c2cnc(-c3ccc(C(=O)NCC#Cc4cc5c(C6CCC(=O)NC6=O)nccc5o4)nc3)cc21 (centres unmarked) [Example A218, 5-(4-(1,3-dimethyl-2-oxo-2,3-dihydro-1H-benzo[d]imidazol-5-yl)-1-methyl-1,2,3,4-tetrahydropyrido[3,4-b]pyrazin-7-yl)-N-(3-(4-(2,6-dioxo-piperidin-3-yl)furo[3,2-c]pyridin-2-yl)prop-2-yn-1-yl)picolinamide] | > 80 | < 1
Cc1cc(N2CCN(C)c3nc(-c4ccc(C(=O)NCC#Cc5cc6c(C7CCC(=O)NC7=O)nccc6o5)nc4)ncc32)cc2c1n(C)c(=O)n2C (centres unmarked) [Example A220, N-(3-(4-(2,6-dioxo-piperidin-3-yl)furo[3,2-c]pyridin-2-yl)prop-2-yn-1-yl)-5-(8-methyl-5-(1,3,7-trimethyl-2-oxo-2,3-dihydro-1H-benzo [d]imidazol-5-yl)-5,6,7,8-tetrahydro-pteridin-2-yl)picolinamide] | > 80 | 1 to 9.9
Cc1nc(-c2cnc(N(C)c3cc(C4CCOCC4)c4c(c3)n(C)c(=O)n4C)cn2)cnc1C(=O)NCC#Cc1cc2c(C3CCC(=O)NC3=O)cccc2o1 (centres unmarked) [Example A222, 5′-((1,3-dimethyl-2-oxo-7-(tetrahydro-2H-pyran-4-yl)-2,3-dihydro-1H-benzo[d]imidazol-5-yl)(methyl)amino)-N-(3-(4-(2,6-dioxo-piperidin-3-yl)benzofuran-2-yl)prop-2-yn-1-yl)-6-methyl-[2,2′-bipyrazine]-5-carboxamide] | > 80 | 1 to 9.9
CCN(c1cnc(-c2ccc(C(=O)NCC#Cc3cc4c(C5CCC(=O)NC5=O)cccc4o3)nc2)nc1)c1cc(C2CCOCC2)c2c(c1)n(C)c(=O)n2C (centres unmarked) [Example A224, 5-(5-((1,3-dimethyl-2-oxo-7-(tetrahydro-2H-pyran-4-yl)-2,3-dihydro-1H-benzo[d]imidazol-5-yl)(ethyl)amino)pyrimidin-2-yl)-N-(3-(4-(2,6-dioxopiperidin-3-yl)benzofuran-2-yl)prop-2-yn-1-yl)picolinamide] | > 80 | 1 to 9.9
Cc1cc(-c2ncc(N(C)c3cc(C4CCOCC4)c4c(c3)n(C)c(=O)n4C)c(N(C)C)n2)cnc1C(=O)NCC#Cc1cc2c(C3CCC(=O)NC3=O)cccc2o1 (centres unmarked) [Example A225, 5-(5-((1,3-dimethyl-2-oxo-7-(tetrahydro-2H-pyran-4-yl)-2,3-dihydro-1H-benzo[d]imidazol-5-yl)(methyl)amino)-4-(dimethylamino)pyrimidin-2-yl)-N-(3-(4-(2,6-dioxopiperidin-3-yl)benzofuran-2-yl)prop-2-yn-1-yl)-3-methylpicolinamide] | < 20 | > 1000
Cc1cc(-c2ncc3c(n2)CCCN3c2cc(C)c3c(c2)n(C)c(=O)n3C)cnc1C(=O)NCC#Cc1cc2c(C3CCC(=O)NC3=O)cccc2o1 (centres unmarked) [Example A227, N-(3-(4-(2,6-dioxo-piperidin-3-yl)benzofuran-2-yl)prop-2-yn-1-yl)-3-methyl-5-(5-(1,3,7-trimethyl-2-oxo-2,3-dihydro-1H-benzo [d]imidazol-5-yl)-5,6,7,8-tetrahydro-pyrido[3,2-d]pyrimidin-2-yl)picolinamide] | > 80 | 1 to 9.9
CC(C)c1cc(-c2cccc3cc(-c4ccc(C(=O)NCC#Cc5cc6c(C7CCC(=O)NC7=O)coc6cn5)nc4)ncc23)cc2c1n(C)c(=O)n2C (centres unmarked) [Example A228, N-(3-(3-(2,6-dioxo-piperidin-3-yl)furo[2,3-c]pyridin-5-yl)prop-2-yn-1-yl)-5-(8-(7-isopropyl-1,3-dimethyl-2-oxo-2,3-dihydro-1H-benzo [d]imidazol-5-yl)isoquinolin-3-yl)picolinamide] | 60 to 79 | 1 to 9.9
CN(c1cnc(-c2ccc(C(=O)NCC#Cc3cc4c(C5CCC(=O)NC5=O)cccc4o3)nc2)nc1)c1cc(C2CCOCC2)c2c(c1)n(C)c(=O)n2C (centres unmarked) [Example A229, 5-(5-((1,3-dimethyl-2-oxo-7-(tetrahydro-2H-pyran-4-yl)-2,3-dihydro-1H-benzo[d]imidazol-5-yl)(methyl)amino)pyrimidin-2-yl)-N-(3-(4-(2,6-dioxo-piperidin-3-yl)benzofuran-2-yl)prop-2-yn-1-yl)picolinamide] | > 80 | < 1
Cn1cc(-c2ccc3c(c2)n(C)c(=O)n3C)c2cnc(-c3ccc(C(=O)NCC#Cc4cc5c(C6CCC(=O)NC6=O)nccc5o4)nc3)cc2c1=O (centres unmarked) [Example A230, 5-(8-(1,3-dimethyl-2-oxo-2,3-dihydro-1H-benzo[d]imidazol-5-yl)-6-methyl-5-oxo-5,6-dihydro-2,6-naphthyridin-3-yl)-N-(3-(4-(2,6-dioxopiperidin-3-yl)furo[3,2-c]pyridin-2-yl)prop-2-yn-1-yl)picolinamide] | > 80 | 1 to 9.9
Cc1cc(-c2ncc3c(n2)CCCN3c2ccc3c(c2)n(C)c(=O)n3C)cnc1C(=O)NCC#Cc1cc2c(C3CCC(=O)NC3=O)cccc2o1 (centres unmarked) [Example A231, 5-(5-(1,3-dimethyl-2-oxo-2,3-dihydro-1H-benzo[d]imidazol-5-yl)-5,6,7,8-tetra-hydropyrido[3,2-d]pyrimidin-2-yl)-N-(3-(4-(2,6-dioxo-piperidin-3-yl)benzofuran-2-yl)prop-2-yn-1-yl)-3-methylpicolinamide] | > 80 | 1 to 9.9
CC(C)c1cc(-c2cccc3cc(-c4ccc(C(=O)NCC#Cc5cc6c(C7CCC(=O)NC7=O)cn(C)c6cn5)nc4)ncc23)cc2c1n(C)c(=O)n2C (centres unmarked) [Example A232, N-(3-(3-(2,6-dioxo-piperidin-3-yl)-1-methyl-1H-pyrrolo [2,3-c]pyridin-5-yl)prop-2-yn-1-yl)-5-(8-(7-isopropyl-1,3-dimethyl-2-oxo-2,3-dihydro-1H-benzo[d]imidazol-5-yl)isoquinolin-3-yl)picolinamide] | 40 to 59 | 10 to 99
CC(C)c1cc(-c2cccc3cc(-c4ccc(C(=O)NCC#Cc5cc(C#N)c6occ(C7CCC(=O)NC7=O)c6c5)nc4)ncc23)cc2c1n(C)c(=O)n2C (centres unmarked) [Example A233, N-(3-(7-cyano-3-(2,6-dioxopiperidin-3-yl)benzofuran-5-yl)prop-2-yn-1-yl)-5-(8-(7-isopropyl-1,3-dimethyl-2-oxo-2,3-dihydro-1H-benzo [d]imidazol-5-yl)isoquinolin-3-yl)picolinamide] | 40 to 59 | 10 to 99
Cc1cc(-c2ncc(N(C)c3cc(C(C)C)c4c(c3)n(C)c(=O)n4C)cn2)cnc1C(=O)NCC#Cc1cc2c(C3CCC(=O)NC3=O)coc2cc1F (centres unmarked) [Example A235, N-(3-(3-(2,6-dioxo-piperidin-3-yl)-6-fluorobenzofuran-5-yl)prop-2-yn-1-yl)-5-(5-((7-isopropyl-1,3-dimethyl-2-oxo-2,3-dihydro-1H-benzo [d]imidazol-5-yl)(methyl)amino)pyrimidin-2-yl)-3-methylpicolinamide] | > 80 | 1 to 9.9
Cc1cc(-c2ncc(Nc3cc(C4CCOCC4)c4c(c3)n(C)c(=O)n4C)cn2)cnc1C(=O)NCC#Cc1cc2c(C3CCC(=O)NC3=O)cccc2o1 (centres unmarked) [Example A236, 5-(5-((1,3-dimethyl-2-oxo-7-(tetrahydro-2H-pyran-4-yl)-2,3-dihydro-1H-benzo[d]imidazol-5-yl)amino)pyrimidin-2-yl)-N-(3-(4-(2,6-dioxopiperidin-3-yl)benzofuran-2-yl)prop-2-yn-1-yl)-3-methylpicolinamide] | 40 to 59 | 10 to 99
Cc1cc(N2CCN(C)c3cc(-c4ccc(C(=O)NCC#Cc5cc6c(C7CCC(=O)NC7=O)cccc6o5)nc4)ncc32)cc2c1n(C)c(=O)n2C (centres unmarked) [Example A239, N-(3-(4-(2,6-dioxo-piperidin-3-yl)benzofuran-2-yl)prop-2-yn-1-yl)-5-(1-methyl-4-(1,3,7-trimethyl-2-oxo-2,3-dihydro-1H-benzo [d]imidazol-5-yl)-1,2,3,4-tetrahydro-pyrido[3,4-b]pyrazin-7-yl)picolinamide] | > 80 | < 1
CC(C)c1cc(-c2cccc3cc(-c4ccc(C(=O)NCC#Cc5cc6c(C7CCC(=O)NC7=O)coc6cc5C#N)nc4)ncc23)cc2c1n(C)c(=O)n2C (centres unmarked) [Example A240, N-(3-(6-cyano-3-(2,6-dioxopiperidin-3-yl)benzofuran-5-yl)prop-2-yn-1-yl)-5-(8-(7-isopropyl-1,3-dimethyl-2-oxo-2,3-dihydro-1H-benzo [d]imidazol-5-yl)isoquinolin-3-yl)picolinamide] | 40 to 59 | 10 to 99
Cc1cc(-c2ncc3c(n2)OCCN3c2cc(C)c3c(c2)n(C)c(=O)n3C)cnc1C(=O)NCC#Cc1cc2c(C3CCC(=O)NC3=O)cccc2o1 (centres unmarked) [Example A241, N-(3-(4-(2,6-dioxo-piperidin-3-yl)benzofuran-2-yl)prop-2-yn-1-yl)-3-methyl-5-(5-(1,3,7-trimethyl-2-oxo-2,3-dihydro-1H-benzo [d]imidazol-5-yl)-6,7-dihydro-5H-pyrimido [4,5-b][1,4]oxazin-2-yl)picolinamide] | > 80 | 1 to 9.9
CN1CCN(c2ccc3c(c2)n(C)c(=O)n3C)c2cc(C(F)(F)F)c(-c3ccc(C(=O)NCC#Cc4cc5c(C6CCC(=O)NC6=O)cccc5o4)nc3)cc21 (centres unmarked) [Example A242, 5-(1-(1,3-dimethyl-2-oxo-2,3-dihydro-1H-benzo[d]imidazol-5-yl)-4-methyl-7-(trifluoromethyl)-1,2,3,4-tetrahydroquinoxalin-6-yl)-N-(3-(4-(2,6-dioxopiperidin-3-yl)benzofuran-2-yl)prop-2-yn-1-yl)picolinamide] | > 80 | 1 to 9.9
Cc1cc(-c2cc(F)c(Nc3cc(C4CCOCC4)c4c(c3)n(C)c(=O)n4C)cc2C(F)(F)F)cnc1C(=O)NCC#Cc1cc2c(C3CCC(=O)NC3=O)cccc2o1 (centres unmarked) [Example A244, 5-(4-((1,3-dimethyl-2-oxo-7-(tetrahydro-2H-pyran-4-yl)-2,3-dihydro-1H-benzo[d]imidazol-5-yl)amino)-5-fluoro-2-(trifluoromethyl)phenyl)-N-(3-(4-(2,6-dioxopiperidin-3-yl)benzofuran-2-yl)prop-2-yn-1-yl)-3-methylpicolinamide] | 40 to 59 | 10 to 99
